Common to all, as to test: MIC by micro-dilution method
What all share (format): cell-based
(In general: Dilution methods test growth across graded concentrations, often in twofold steps.)

The test system of assay [1] is H. influenzae 33929. To be noted: Haemophilus influenzae. As to the method: (§1) Antibacterial activity studies may be carried out using suitable assays as are known in the art. Susceptibility tests can be used to quantitatively measure the in vitro activity of an antimicrobial agent against a given bacterial isolate. Compounds are tested for in vitro antibacterial activity by a micro-dilution method. Minimal Inhibitory Concentration (MIC) is determined in 96 well microtiter plates utilizing the appropriate Mueller Hinton Broth medium (CAMHB) for the observed bacterial isolates. Antimicrobial agents are serially diluted (2-fold) in DMSO to produce a concentration range from about 64 μg/ml to about 0.03 μg/ml. The diluted compounds (2 μl/well) are then transferred into sterile, uninoculated CAMHB (0.2 mL) by use of a 96 fixed tip-pipeting station. The inoculum for each bacterial strain is standardized to 5×10^5 CFU/mL by optical comparison to a 0.5 McFarland turbidity standard. The plates are inoculated with 10 μI/well of adjusted bacterial inoculum. The 96 well plates are covered and incubated at 35+/−2° C. for 24 hours in ambient air environment. Following incubation, plate wells are visually examined by Optical Density measurement for the presence of growth (turbidity). The lowest concentration of an antimicrobial agent at which no visible growth occurs is defined as the MIC.
(§2) All in vitro testing follows the guidelines described in the Approved Standards M7-A4 protocol, published by the National Committee for Clinical Laboratory Standards (NCCLS).
(§3) The values in the table are minimum inhibition concentration (MIC) and are expressed as ug/mL. Assays for MIC are described above.

Assay [2] has as its system S. aureus 27660. The settings on record: Staphylococcus aureus. The protocol:
as §1, §2, §3

The test system of assay [3] is S. aureus 29213. To be noted: Staphylococcus aureus. As to the method:
as §1, §2, §3

Assay [4] has as its system S. aureus 33591. To be noted: Staphylococcus aureus. As to the method: as §1, §2, §3
Assay [5] has as its system S. pneumoniae 700906. The settings on record: Streptococcus pneumoniae. As to the method:
as §1, §2, §3

For assay [6], the system named is S. pneumoniae 7701. To be noted: Streptococcus pneumoniae. As to the method:
as §1, §2, §3

The test system of assay [7] is S. pyogenes 1323. The settings on record: Streptococcus pyogenes. As to the method: as §1, §2, §3
The test system of assay [8] is S. pyogenes 2912. To be noted: Streptococcus pyogenes. As to the method: as §1, §2, §3
[9] abbreviates: Table IV, species from U.S. Pat. No. 6,878,691 and US 2004/0053861, read-out: minimum inhibition concentration (MIC) H. influenzae 33929.
The mark [10] stands for this setting: Table IV, species from U.S. Pat. No. 6,878,691 and US 2004/0053861, read-out: minimum inhibition concentration (MIC) S. aureus 27660.
The mark [11] stands for this setting: Table IV, species from U.S. Pat. No. 6,878,691 and US 2004/0053861, read-out: minimum inhibition concentration (MIC) S. aureus 29213.
Setting [12] is: Table IV, species from U.S. Pat. No. 6,878,691 and US 2004/0053861, read-out: minimum inhibition concentration (MIC) S. aureus 33591.
[13] abbreviates: Table IV, species from U.S. Pat. No. 6,878,691 and US 2004/0053861, read-out: minimum inhibition concentration (MIC) S. pneumoniae 700906.
Setting [14] is: Table IV, species from U.S. Pat. No. 6,878,691 and US 2004/0053861, read-out: minimum inhibition concentration (MIC) S. pneumoniae 7701.
[15] abbreviates: Table IV, species from U.S. Pat. No. 6,878,691 and US 2004/0053861, read-out: minimum inhibition concentration (MIC) S. pyogenes 1323.
Where [16] appears, read: Table IV, species from U.S. Pat. No. 6,878,691 and US 2004/0053861, read-out: minimum inhibition concentration (MIC) S. pyogenes 2912.
Setting [17] is: Table V, compounds of this invention, read-out: minimum inhibition concentration H. influenzae 33929.
The mark [18] stands for this setting: Table V, compounds of this invention, read-out: minimum inhibition concentration S. aureus 27660.
Where [19] appears, read: Table V, compounds of this invention, read-out: minimum inhibition concentration S. aureus 29213.
The mark [20] stands for this setting: Table V, compounds of this invention, read-out: minimum inhibition concentration S. aureus 33591.
Setting [21] is: Table V, compounds of this invention, read-out: minimum inhibition concentration S. pneumoniae 700906.
[22] abbreviates: Table V, compounds of this invention, read-out: minimum inhibition concentration S. pneumoniae 7701.
Where [23] appears, read: Table V, compounds of this invention, read-out: minimum inhibition concentration S. pyogenes 1323.
Setting [24] is: Table V, compounds of this invention, read-out: minimum inhibition concentration S. pyogenes 2912.

Values after ≈ are worked out from the molar mass of the structure shown. Where two headings read alike, the source gives them in different places. A value given as a limit tells only on which side of the number the result lay.

As to `CC[C@H]1OC(=O)[C@H](C)C(=O)[C@H](C)[C@@H](O[C@@H]2O[C@H](C)C[C@H](N(C)C)[C@H]2O)[C@@]2(C)C[C@@H](C)/C(=N\C(C)=O)[C@H](C)[C@@H](OC/C(=N\OCc3nccc4ccccc34)CO2)[C@]1(C)O` [Compound A1], the MIC in assay [1] (setting [9]) was 8 µg/mL (≈ 9.7 µM); in assay [2] (setting [10]), 0.13 µg/mL (≈ 0.158 µM); in assay [3] (setting [11]) it was 0.25 µg/mL (≈ 0.303 µM); in assay [4] (setting [12]), > 64 µg/mL; in assay [5] (setting [13]), 0.25 µg/mL (≈ 0.303 µM); in assay [6] (setting [14]), 0.5 µg/mL (≈ 0.606 µM). The MIC came out at 0.5 µg/mL (≈ 0.606 µM) in assay [7] (setting [15]) and 8 µg/mL (≈ 9.7 µM) in assay [8] (setting [16]).
As to `CC[C@H]1OC(=O)[C@H](C)C(=O)[C@H](C)[C@@H](O[C@@H]2O[C@H](C)C[C@H](N(C)C)[C@H]2O)[C@@]2(C)C[C@@H](C)/C(=N\C(C)=O)[C@H](C)[C@@H](OC/C(=N\OCc3ccc4nccnc4c3)CO2)[C@]1(C)O` [Compound A2], the MIC was 16 µg/mL (≈ 19.4 µM) in assay [1] (setting [9]); 0.25 µg/mL (≈ 0.303 µM) in assay [2] (setting [10]); 0.5 µg/mL (≈ 0.605 µM) in assay [3] (setting [11]); > 64 µg/mL in assay [4] (setting [12]); 0.25 µg/mL (≈ 0.303 µM) in assay [5] (setting [13]); 0.5 µg/mL (≈ 0.605 µM) in assay [6] (setting [14]). The MIC in assay [7] (setting [15]) was found to be 1 µg/mL (≈ 1.21 µM); in assay [8] (setting [16]), 16 µg/mL (≈ 19.4 µM).
Take `CC[C@H]1OC(=O)[C@H](C)C(=O)[C@H](C)[C@@H](O[C@@H]2O[C@H](C)C[C@H](N(C)C)[C@H]2O)[C@@]2(C)C[C@@H](C)/C(=N\C(C)=O)[C@H](C)[C@@H](OC/C(=N\OCc3cn4ccncc4n3)CO2)[C@]1(C)O` [Compound A3]: the MIC in assay [1] (setting [9]) was 8 µg/mL (≈ 9.82 µM); in assay [2] (setting [10]) it was 0.25 µg/mL (≈ 0.307 µM); in assay [3] (setting [11]), 0.25 µg/mL (≈ 0.307 µM); in assay [4] (setting [12]), > 64 µg/mL; in assay [5] (setting [13]), 0.13 µg/mL (≈ 0.16 µM); in assay [6] (setting [14]), 2 µg/mL (≈ 2.45 µM). The MIC in assay [7] (setting [15]) is 16 µg/mL (≈ 19.6 µM); in assay [8] (setting [16]), 32 µg/mL (≈ 39.3 µM).
For `CC[C@H]1OC(=O)[C@H](C)[C@@H](OC2C[C@@](C)(OC)[C@@H](OC(C)=O)[C@H](C)O2)[C@H](C)[C@@H](O[C@@H]2O[C@H](C)C[C@H](N(C)C)[C@H]2O)[C@@]2(C)C[C@@H](C)C(=O)[C@H](C)[C@@H](OCC(=Cc3cnc4ccccc4c3)CO2)[C@]1(C)O` (stereo partly shown) [Compound A4], the MIC in assay [1] (setting [9]) is > 64 µg/mL; in assay [6] (setting [14]) it was 8 µg/mL (≈ 8.38 µM); in assay [7] (setting [15]), 64 µg/mL (≈ 67 µM); in assay [8] (setting [16]) it was 64 µg/mL (≈ 67 µM).
Consider `CC[C@H]1OC(=O)[C@H](C)[C@@H](O)[C@H](C)[C@@H](O[C@@H]2O[C@H](C)C[C@H](N(C)C)[C@H]2O)[C@@]2(C)C[C@@H](C)C(=N)[C@H](C)[C@@H](OC/C(=N\OCc3ccccc3)CO2)[C@]1(C)O` [Compound A5], for which the MIC in assay [1] (setting [9]) was > 64 µg/mL; in assay [4] (setting [12]), > 64 µg/mL; in assay [6] (setting [14]), 2 µg/mL (≈ 2.73 µM); in assay [7] (setting [15]), 64 µg/mL (≈ 87.2 µM); in assay [8] (setting [16]) it was > 64 µg/mL.
For the compound `CC[C@H]1OC(=O)[C@H](C)[C@@H](OC(=O)Cc2cccnc2)[C@H](C)[C@@H](O[C@@H]2O[C@H](C)C[C@H](N(C)C)[C@H]2O)[C@@]2(C)C[C@@H](C)/C(=N\C(C)=O)[C@H](C)[C@@H](OC/C(=C\C=C\c3ccccc3)CO2)[C@]1(C)O` [Compound A6], the MIC was > 64 µg/mL in assay [1] (setting [9]); 1 µg/mL (≈ 1.12 µM) in assay [2] (setting [10]); 1 µg/mL (≈ 1.12 µM) in assay [3] (setting [11]); 16 µg/mL (≈ 18 µM) in assay [4] (setting [12]); 8 µg/mL (≈ 8.99 µM) in assay [5] (setting [13]); 1 µg/mL (≈ 1.12 µM) in assay [6] (setting [14]). The figures for the MIC in assay [7] (setting [15]) and in assay [8] (setting [16]) were 2 µg/mL (≈ 2.25 µM) and 8 µg/mL (≈ 8.99 µM), respectively.
Take `CC[C@H]1OC(=O)[C@H](C)C(=O)[C@H](C)[C@@H](O[C@@H]2O[C@H](C)C[C@H](N(C)C)[C@H]2O)[C@@]2(C)C[C@@H](C)C(=O)[C@H](C)[C@@H](OC/C(=N\OCc3ccc4nc(N)sc4c3)CO2)[C@]1(C)O` [Compound B1]: the MIC was 2 µg/mL (≈ 2.48 µM) in assay [1] (setting [17]); ≤ 0.06 µg/mL in assay [2] (setting [18]); ≤ 0.06 µg/mL in assay [3] (setting [19]); > 64 µg/mL in assay [4] (setting [20]); 1 µg/mL (≈ 1.24 µM) in assay [5] (setting [21]); ≤ 0.06 µg/mL in assay [6] (setting [22]). Further, the MIC in assay [7] (setting [23]) came out at 0.25 µg/mL (≈ 0.311 µM); in assay [8] (setting [24]), 4 µg/mL (≈ 4.97 µM).
With `CC[C@H]1OC(=O)[C@@](C)(F)C(=O)[C@H](C)[C@@H](O[C@@H]2O[C@H](C)C[C@H](N(C)C)[C@H]2O)[C@@]2(C)C[C@@H](C)/C(=N\C(C)=O)[C@H](C)[C@@H](OC/C(=N\OCc3ccc4onc(N)c4c3)CO2)[C@]1(C)O` [Compound B2], the MIC was 2 µg/mL (≈ 2.36 µM) in assay [1] (setting [17]); ≤ 0.06 µg/mL in assay [2] (setting [18]); 0.125 µg/mL (≈ 0.147 µM) in assay [3] (setting [19]); > 64 µg/mL in assay [4] (setting [20]); 0.5 µg/mL (≈ 0.59 µM) in assay [5] (setting [21]); 0.125 µg/mL (≈ 0.147 µM) in assay [6] (setting [22]). For the same compound, the MIC in assay [7] (setting [23]) is 0.5 µg/mL (≈ 0.59 µM); in assay [8] (setting [24]), 2 µg/mL (≈ 2.36 µM).
Turning to `CC[C@H]1OC(=O)[C@H](C)C(=O)[C@H](C)[C@@H](O[C@@H]2O[C@H](C)C[C@H](N(C)C)[C@H]2O)[C@@]2(C)C[C@@H](C)C(=O)[C@H](C)[C@@H](OC/C(=N\OCc3ccc4oc(N)nc4c3)CO2)[C@]1(C)O` [Compound B3], the MIC in assay [1] (setting [17]) was 2 µg/mL (≈ 2.54 µM); in assay [2] (setting [18]), ≤ 0.06 µg/mL; in assay [3] (setting [19]), ≤ 0.06 µg/mL; in assay [4] (setting [20]) it was 32 µg/mL (≈ 40.6 µM); in assay [5] (setting [21]), 0.25 µg/mL (≈ 0.317 µM); in assay [6] (setting [22]), 0.125 µg/mL (≈ 0.158 µM). Also, the MIC was 0.5 µg/mL (≈ 0.634 µM) in assay [7] (setting [23]) and 4 µg/mL (≈ 5.07 µM) in assay [8] (setting [24]).
As for `CC[C@H]1OC(=O)[C@H](C)C(=O)[C@H](C)[C@@H](O[C@@H]2O[C@H](C)C[C@H](N(C)C)[C@H]2O)[C@@]2(C)C[C@@H](C)/C(=N\C(C)=O)[C@H](C)[C@@H](OC/C(=N\OCc3ccc4oc(N)nc4c3)CO2)[C@]1(C)O` [Compound B4], the MIC in assay [1] (setting [17]) was determined as 4 µg/mL (≈ 4.82 µM); in assay [2] (setting [18]) it was 0.125 µg/mL (≈ 0.151 µM); in assay [3] (setting [19]) it was 0.125 µg/mL (≈ 0.151 µM); in assay [4] (setting [20]), 32 µg/mL (≈ 38.6 µM); in assay [5] (setting [21]) it was 0.125 µg/mL (≈ 0.151 µM); in assay [6] (setting [22]), 0.125 µg/mL (≈ 0.151 µM). In addition, the MIC in assay [7] (setting [23]) came out at 0.5 µg/mL (≈ 0.602 µM); in assay [8] (setting [24]), 1 µg/mL (≈ 1.2 µM).
